From the supplement of paper PMC10307832

Legend:
Assay in all cases: relative viability (nuclei count vs DMSO), 5 days (fraction); higher = more cells survive
VX-702 + Palbociclib = compound: NC(=O)c1ccc(N(C(N)=O)c2c(F)cccc2F)nc1-c1ccc(F)cc1F [VX-702] + CC(=O)c1c(C)c2cnc(Nc3ccc(N4CCNCC4)cn3)nc2n(C2CCCC2)c1=O [Palbociclib] (partner 0.5 µM)
Summary of the method: (§1)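 Five library-drug doses in √10 steps were combined with a fixed anchor-drug dose, or a single drug was given alone, by pin tool to lung cancer cell lines in 1536-well plates the day after seeding. Nuclei were stained and counted after 5 days. Relative viability is the nuclei count in treated wells over that in vehicle wells, taken as the median of duplicate plates.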

VX-702 + Tozasertib = compound: NC(=O)c1ccc(N(C(N)=O)c2c(F)cccc2F)nc1-c1ccc(F)cc1F [VX-702] + Cc1cc(Nc2cc(N3CCN(C)CC3)nc(Sc3ccc(NC(=O)C4CC4)cc3)n2)n[nH]1 [Tozasertib] (partner 0.1 µM)
Summary of the method: as §1

VX-702 + Alpelisib = compound: NC(=O)c1ccc(N(C(N)=O)c2c(F)cccc2F)nc1-c1ccc(F)cc1F [VX-702] + Cc1nc(NC(=O)N2CCC[C@H]2C(N)=O)sc1-c1ccnc(C(C)(C)C(F)(F)F)c1 [Alpelisib] (partner 2 µM)
Summary of the method: as §1

VX-702 + Phenformin = compound: NC(=O)c1ccc(N(C(N)=O)c2c(F)cccc2F)nc1-c1ccc(F)cc1F [VX-702] + N=C(N)NC(=N)NCCc1ccccc1 [Phenformin] (partner 250 µM)
Summary of the method: as §1

Cell Line | relative viability (VX-702 + Palbociclib; first compound 0.02 µM) | relative viability (VX-702 + Palbociclib; first compound 0.2 µM) | relative viability (VX-702 + Palbociclib; first compound 0.6325 µM) | relative viability (VX-702 + Palbociclib; first compound 2 µM) | relative viability (VX-702 + Tozasertib; first compound 0.02 µM) | relative viability (VX-702 + Tozasertib; first compound 0.2 µM) | relative viability (VX-702 + Tozasertib; first compound 0.6325 µM) | relative viability (VX-702 + Tozasertib; first compound 2 µM) | relative viability (VX-702 + Alpelisib; first compound 0.02 µM) | relative viability (VX-702 + Alpelisib; first compound 0.2 µM) | relative viability (VX-702 + Alpelisib; first compound 0.6325 µM) | relative viability (VX-702 + Alpelisib; first compound 2 µM) | relative viability (VX-702 + Phenformin; first compound 0.02 µM) | relative viability (VX-702 + Phenformin; first compound 0.2 µM) | relative viability (VX-702 + Phenformin; first compound 0.6325 µM) | relative viability (VX-702 + Phenformin; first compound 2 µM)
NCI-H2023 | 0.381 | 0.347 | 0.404 | 0.436 | 0.264 | 0.308 | 0.296 | 0.38 | 0.55 | 0.606 | 0.483 | 0.561 | 0.407 | 0.469 | 0.413 | 0.559
NCI-H2085 | 0.507 | 0.46 | 0.506 | 0.516 | 0.847 | 0.762 | 0.864 | 0.789 | 1.08 | 0.838 | 0.959 | 0.955 | 0.718 | 0.728 | 0.704 | 0.702
NCI-H2087 | 0.203 | 0.228 | 0.214 | 0.225 | 0.277 | 0.236 | 0.284 | 0.281 | 1.2 | 1.04 | 1.04 | 1.19 | 0.481 | 0.445 | 0.422 | 0.528
NCI-H2126 | 0.365 | 0.323 | 0.341 | 0.35 | 0.816 | 0.859 | 0.783 | 1.04 | 0.708 | 0.708 | 0.718 | 0.698 | 0.545 | 0.521 | 0.51 | 0.507
NCI-H2170 | 0.355 | 0.374 | 0.42 | 0.369 | 0.722 | 0.696 | 0.753 | 0.871 | 0.801 | 0.61 | 0.757 | 0.869 | 0.475 | 0.442 | 0.429 | 0.451
NCI-H2228 | 0.604 | 0.763 | 0.676 | 1.07 | 0.314 | 0.319 | 0.199 | 0.23 | 0.826 | 0.64 | 0.753 | 0.856 | 0.48 | 0.354 | 0.324 | 0.34
NCI-H2347 | 0.455 | 0.473 | 0.466 | 0.476 | 0.592 | – | 0.505 | 0.521 | 1.01 | 1.12 | 1.05 | 1.14 | 0.574 | – | 0.395 | 0.425
NCI-H2405 | 0.536 | 0.515 | 0.457 | 0.493 | 0.816 | 0.724 | 0.717 | 0.726 | 0.672 | 0.766 | 0.774 | 0.949 | 0.457 | 0.437 | 0.385 | 0.401
NCI-H3122 | 0.243 | 0.19 | 0.184 | 0.215 | 0.328 | 0.34 | 0.379 | 0.49 | 0.822 | 0.735 | 0.676 | 0.859 | 0.409 | 0.388 | 0.44 | 0.424
PC-3 [JPC-3] | 0.568 | 0.517 | 0.566 | 0.553 | 0.883 | 0.896 | 0.922 | 0.957 | 1.02 | 1.06 | 1.07 | 1.02 | 0.484 | 0.491 | 0.457 | 0.464
PC-14 | 0.519 | 0.595 | 0.561 | 0.732 | 0.559 | 0.527 | 0.551 | 0.587 | 1.05 | 0.912 | 0.927 | 1.01 | 0.618 | 0.547 | 0.689 | 0.483
RERF-LC-KJ | 1 | 1.57 | 1.14 | 1.19 | 0.538 | 0.477 | 0.541 | 0.463 | 0.969 | 0.69 | 0.8 | 0.794 | 0.401 | 0.449 | 0.369 | 0.517
SK-LU-1 | 0.38 | 0.355 | 0.382 | 0.395 | 0.337 | 0.315 | 0.311 | 0.476 | 1.08 | 0.972 | 1.04 | 1.34 | 0.636 | 0.508 | 0.524 | 0.531
SK-MES-1 | 0.334 | 0.312 | 0.293 | 0.314 | 0.92 | 0.944 | 0.914 | 0.995 | 0.739 | 0.822 | 0.853 | 0.918 | 0.678 | 0.663 | 0.725 | 0.73
SW 1573 | 0.422 | 0.395 | 0.32 | 0.318 | 0.145 | 0.168 | 0.173 | 0.243 | 0.789 | 0.64 | 0.759 | 0.652 | 0.364 | 0.261 | 0.282 | 0.327
UMC-11 | 0.319 | 0.327 | 0.336 | 0.309 | 0.202 | 0.207 | 0.186 | 0.198 | 0.954 | 0.973 | 0.955 | 1.29 | 0.34 | 0.346 | 0.301 | 0.363
